Literature values, collected in patent US20250019557A1, “INK SET AND INKJET RECORDING APPARATUS” (KYOCERA Document Solutions Inc., priority 2023, published 2025).

Conditions: octanol/water partition coefficient; literature value, or calculated where none exists

| SMILES | LogP |
| --- | --- |
| CC(O)CO (stereo not shown) [1,2-Propanediol] | −0.92 |
| OCCCO [1,3-Propanediol] | −1.04 |
| CC(CCO)CCO [3-Methyl-1,5-pentanediol] | 0.35 |
| CCCCOCCOCCOCCO [Triethylene glycol monobutyl ether] | 0.44 |
